Consider 2 compounds from US6841547B2, “Method for decreasing low density lipoprotein” (Albert Einstein College of Medicine of Yeshevia University, priority 2003, dated 2005).

The nature of assay [1]: 6-month regimen of sub-antibacterial doxycycline: cholesterol fractions in plasma of acute coronary syndrome patients with elevated baseline cholesterol. The assay is classed as in vivo, human. As to the method: After six months, the cholesterol fractions were then measured (Table 1). Table 1: The Effect of a 6-Month Regimen of Sub-Antibacterial Doxycycline on Cholesterol Values in Plasma of Acute Coromary Syndrome Patients with Elevated Baseline Cholesterol

The conditions of assay [2]: in vivo; cited from earlier work.
The conditions of assay [3]: humans; cited from earlier work.

On to `C[C@H]1c2cccc(O)c2C(=O)C2=C(O)[C@]3(O)C(=O)C(C(N)=O)=C(O)[C@@H](N(C)C)[C@@H]3[C@@H](O)[C@@H]21` [doxycycline], for which, in assay [1] (6 months vs baseline, doxycycline 20 mg twice a day), the “Change Due to Treatment, HDL/Cholesterol (Increase)” value stood at 19%. The “Change Due to Treatment, LDL-Cholesterol (Reduction)” value in assay [1] (6 months vs baseline, doxycycline 20 mg twice a day, p=0.033) stood at 31%. Moreover, the “Total Cholesterol, 6 Month Level” value in assay [1] (plasma, doxycycline 20 mg twice a day for six months, 3 patients on statins, baseline 231 ± 20) stood at 190 ± 20 mg %. Besides, the “HDL-Cholesterol, 6 Month Level” value in assay [1] (plasma, doxycycline 20 mg twice a day for six months, baseline 48 ± 17) is recorded as 48 ± 18 mg %. Besides, the “LDL-Cholesterol, 6 Month Level” value in assay [1] (plasma, doxycycline 20 mg twice a day for six months, baseline 155 ± 9) came out at 107 ± 12 mg %. Moreover, in assay [1] (ratio of HDL-cholesterol to total cholesterol, doxycycline 20 mg twice a day for six months, baseline 0.21), the “HDL/Cholesterol, 6 Month Level” value is listed as 0.25.
As for `CN(C)[C@@H]1C(O)=C(C(N)=O)C(=O)[C@@]2(O)C(O)=C3C(=O)c4c(O)cccc4[C@@](C)(O)[C@H]3C[C@@H]12` [tetracycline], in assay [2], the “Effect on serum cholesterol levels” value was “reduce serum cholesterol levels”. In addition, the “Effect on serum cholesterol” value in assay [3] was “no effect”.
